Source: US11702404B2, “GLP-1R modulating compounds” (priority 2019, dated 2023)

What was measured:
GLP-1R = GLP-1R (Homo sapiens, UniProt P43220); test: GLP-1R activation: cAMP increase in CHO cells stably expressing GLP-1R; assay type: cell-based; settings: cAMP increase, CHO cells stably expressing GLP-1R, 10 point dose response, 30 minutes incubation; read-out: EC50
[1] = Microsomal stability, human liver microsomes (predicted hepatic clearance); settings: predicted from in vitro microsomal stability data

Chain of GLP-1R (P43220 24-463): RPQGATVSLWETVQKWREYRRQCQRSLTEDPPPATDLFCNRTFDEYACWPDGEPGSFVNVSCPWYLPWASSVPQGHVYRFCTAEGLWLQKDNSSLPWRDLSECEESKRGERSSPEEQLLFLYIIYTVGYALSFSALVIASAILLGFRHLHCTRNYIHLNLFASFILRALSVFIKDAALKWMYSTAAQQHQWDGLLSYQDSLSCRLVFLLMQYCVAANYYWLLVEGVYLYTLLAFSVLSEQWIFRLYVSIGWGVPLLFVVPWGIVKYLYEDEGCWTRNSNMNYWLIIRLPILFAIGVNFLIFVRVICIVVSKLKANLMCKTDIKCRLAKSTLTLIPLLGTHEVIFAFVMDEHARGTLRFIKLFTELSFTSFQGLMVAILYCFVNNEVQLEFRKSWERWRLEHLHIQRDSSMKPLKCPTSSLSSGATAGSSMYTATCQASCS

SMILES | EC50 (GLP-1R) [nM] | Predicted Hepatic Clearance (Pred. Cl.) [1] [L/h/kg]
N#Cc1ccc(COc2cccc(-c3cc(F)c(Cc4nc5ccc(C(=O)O)cc5n4Cc4cnccn4)cc3F)n2)c(F)c1 [Example 310, 2-(4-(6-((4-cyano-2-fluorobenzyl)oxy)pyridin-2-yl)-2,5-difluorobenzyl)-1-(pyrazin-2-ylmethyl)-1H-benzo[d]imidazole-6-carboxylic acid] | 16.3 | 0.38
N#Cc1ccc(COc2cccc(-c3cc(F)c(Cc4nc5ccc(C(=O)O)cc5n4Cc4ccccn4)cc3F)n2)c(F)c1 [Example 311, 2-(4-(6-((4-cyano-2-fluorobenzyl)oxy)pyridin-2-yl)-2,5-difluorobenzyl)-1-(pyridin-2-ylmethyl)-1H-benzo[d]imidazole-6-carboxylic acid] | 95.6 | 0.42
N#Cc1ccc(COc2cccc(-c3cc(F)c(Cc4nc5ccc(C(=O)O)cc5n4Cc4ccc[nH]c4=O)cc3F)n2)c(F)c1 [Example 312, 2-(4-(6-((4-cyano-2-fluorobenzyl)oxy)pyridin-2-yl)-2,5-difluorobenzyl)-1-((2-oxo-1,2-dihydropyridin-3-yl)methyl)-1H-benzo[d]imidazole-6-carboxylic acid] | 250 | 0.28
COCCn1c(Cc2cc(Cl)c(-c3cccc(OCc4ccc(C#N)cc4F)n3)cc2F)nc2ccc(C(=O)O)cc21 [Example 314, 2-(5-chloro-4-(6-((4-cyano-2-fluorobenzyl)oxy)pyridin-2-yl)-2-fluorobenzyl)-1-(2-methoxyethyl)-1H-benzo[d]imidazole-6-carboxylic acid] | 12.5 | 0.3
N#Cc1ccc(COc2cccc(-c3ccc(Cc4nc5ccc(C(=O)O)cc5n4CC4(O)COC4)c(F)c3)n2)c(F)c1 [Example 316, 2-(4-(6-((4-cyano-2-fluorobenzyl)oxy)pyridin-2-yl)-2-fluorobenzyl)-1-((3-hydroxyoxetan-3-yl)methyl)-1H-benzo[d]imidazole-6-carboxylic acid] | 14 | 0.28
COCCn1c(Cc2ccc(-c3ccc(F)c(OCc4ccc(C#N)cc4F)n3)c(F)c2)nc2ccc(C(=O)O)cc21 [Example 320, 2-(4-(6-((4-cyano-2-fluorobenzyl)oxy)-5-fluoropyridin-2-yl)-3-fluorobenzyl)-1-(2-methoxyethyl)-1H-benzo[d]imidazole-carboxylic acid] | 18 | 0.25
N#Cc1ccc(COc2cccc(-c3ccc(Cc4nc5ccc(C(=O)O)cc5n4CCOC(F)(F)F)c(F)c3)n2)c(F)c1 [Example 323, 2-(4-(6-((4-cyano-2-fluorobenzyl)oxy)pyridin-2-yl)-2-fluorobenzyl)-1-(2-(trifluoromethoxy)ethyl)-1H-benzo[d]imidazole-6-carboxylic acid] | 27.5 | 0.26
CO[C@@H](C)Cn1c(Cc2ccc(-c3cccc(OCc4ccc(C#N)cc4F)n3)cc2F)nc2ccc(C(=O)O)cc21 [Example 331, (S)-2-(4-(6-((4-cyano-2-fluorobenzyl)oxy)pyridin-2-yl)-2-fluorobenzyl)-1-(2-methoxypropyl)-1H-benzo[d]imidazole-6-carboxylic acid] | 12.3 | 0.24
COCCn1c(Cc2ccc(-c3cccc(OCc4ccc(C#N)cc4F)n3)cc2F)nc2c(OC)cc(C(=O)O)cc21 [Example 345, 2-(4-(6-((4-cyano-2-fluorobenzyl)oxy)pyridin-2-yl)-2-fluorobenzyl)-4-methoxy-1-(2-methoxyethyl)-1H-benzo[d]imidazole-6-carboxylic] | 175 | 0.23
COCCn1c(Cc2ccc(-c3cccc(OCc4ccc(C#N)cc4OC4CC4)n3)cc2F)nc2ccc(C(=O)O)cc21 [Example 346, 2-(4-(6-((4-cyano-2-cyclopropoxybenzyl)oxy)pyridin-2-yl)-2-fluorobenzyl)-1-(2-methoxyethyl)-1H-benzo[d]imidazole-6-carboxylic acid] | 94.6 | 0.47

These reach a lower EC50 (GLP-1R). Values come first.

EC50 (GLP-1R) [nM] | Predicted Hepatic Clearance (Pred. Cl.) [1] [L/h/kg] | SMILES
7.73 | 0.18 | CO[C@H](C)Cn1c(Cc2ccc(-c3cccc(OCc4ccc(C#N)cc4F)n3)cc2F)nc2ccc(C(=O)O)cc21 [Example 327, (R)-2-(4-(6-((4-cyano-2-fluorobenzyl)oxy)pyridin-2-yl)-2-fluorobenzyl)-1-(2-methoxypropyl)-1H-benzo[d]imidazole-6-carboxylic acid]
6.81 | 0.74 | N#Cc1ccc(COc2cccc(-c3ccc(Cc4nc5ccc(C(=O)O)cc5n4CC4(CO)COC4)c(F)c3)n2)c(F)c1 [Example 326, 2-(4-(6-((4-cyano-2-fluorobenzyl)oxy)pyridin-2-yl)-2-fluorobenzyl)-1-((3-(hydroxymethyl)oxetan-3-yl)methyl)-1H-benzo[d]imidazole-6-carboxylic acid]
5.22 | 0.17 | N#Cc1ccc(COc2cccc(-c3ccc(Cc4nc5ccc(C(=O)O)cc5n4CCOC(F)F)c(F)c3)n2)c(F)c1 [Example 324, 2-(4-(6-((4-cyano-2-fluorobenzyl)oxy)pyridin-2-yl)-2-fluorobenzyl)-1-(2-(difluoromethoxy)ethyl)-1H-benzo[d]imidazole-6-carboxylic acid]
3.25 | 0.43 | N#Cc1ccc(COc2cccc(-c3ccc(Cc4nc5ccc(C(=O)O)cc5n4CC4(n5cncn5)CC4)c(F)c3)n2)c(F)c1 [Example 313, 1-((1-(1H-1,2,4-triazol-1-yl)cyclopropyl)methyl)-2-(4-(6-((4-cyano-2-fluorobenzyl)oxy)pyridin-2-yl)-2-fluorobenzyl)-1H-benzo[d]imidazole-6-carboxylic acid]
2.43 | <0.11 | N#Cc1ccc(COc2cccc(-c3cc(F)c(Cc4nc5ccc(C(=O)O)nc5n4CC4(CF)CC4)c(F)c3)n2)c(F)c1 [Example 319, 2-(4-(6-((4-cyano-2-fluorobenzyl)oxy)pyridin-2-yl)-2,6-difluorobenzyl)-3-((1-(fluoromethyl)cyclopropyl)methyl)-3H-imidazo[4,5-b]pyridine-5-carboxylic acid]
2.16 | 0.31 | COCCn1c(Cc2cc(F)c(-c3cccc(OCc4ccc(C#N)cc4F)n3)cc2F)nc2ccc(C(=O)O)c(F)c21 [Example 309, 2-(4-(6-((4-cyano-2-fluorobenzyl)oxy)pyridin-2-yl)-2,5-difluorobenzyl)-7-fluoro-1-(2-methoxyethyl)-1H-benzo[d]imidazole-6-carboxylic acid]
2.08 | 0.34 | N#Cc1ccc(COc2cccc(-c3ccc(Cc4nc5c(F)cc(C(=O)O)cc5n4CC4(C#N)CC4)c(F)c3)n2)c(F)c1 [Example 315, 2-(4-(6-((4-cyano-2-fluorobenzyl)oxy)pyridin-2-yl)-2-fluorobenzyl)-1-((l-cyanocyclopropyl)methyl)-4-fluoro-1H-benzo[d]imidazole-6-carboxylic acid]
1.61 | 0.34 | N#Cc1ccc(COc2cccc(-c3cc(F)c(Cc4nc5ccc(C(=O)O)cc5n4CCOC(F)F)cc3F)n2)c(F)c1 [Example 325, 2-(4-(6-((4-cyano-2-fluorobenzyl)oxy)pyridin-2-yl)-2,5-difluorobenzyl)-1-(2-(difluoromethoxy)ethyl)-1H-benzo[d]imidazole-6-carboxylic acid]
1.56 | <0.11 | N#Cc1ccc(COc2nccc(-c3ccc(Cc4nc5ccc(C(=O)O)cc5n4CC4(CF)CC4)c(F)c3)n2)c(F)c1 [Example 344, 2-(4-(2-((4-cyano-2-fluorobenzyl)oxy)pyrimidin-4-yl)-2-fluorobenzyl)-1-((1-(fluoromethyl)cyclopropyl)methyl)-1H-benzo[d]imidazole-6-carboxylic acid]
1.26 | 0.35 | N#Cc1ccc(COc2cccc(-c3cc(F)c(Cc4nc5ccc(C(=O)O)cc5n4CC4(C(F)F)COC4)cc3F)n2)c(F)c1 [Example 308, 2-(4-(6-((4-cyano-2-fluorobenzyl)oxy)pyridin-2-yl)-2,5-difluorobenzyl)-1-((3-(difluoromethyl)oxetan-3-yl)methyl)-1H-benzo[d]imidazole-6-carboxylic acid]
1.07 | <0.11 | O=C(O)c1ccc2nc(Cc3ccc(-c4ccnc(OCc5ccc(Cl)cc5F)n4)c(F)c3)n(CC3(CF)CC3)c2n1 [Example 318, 2-(4-(2-((4-chloro-2-fluorobenzyl)oxy)pyrimidin-4-yl)-3-fluorobenzyl)-3-((1-(fluoromethyl)cyclopropyl)methyl)-3H-imidazo[4,5-b]pyridine-5-carboxylic acid]
1.05 | 0.16 | N#Cc1ccc(COc2nccc(-c3cc(F)c(Cc4nc5ccc(C(=O)O)cc5n4CC4(CF)CC4)c(F)c3)n2)c(F)c1 [Example 317, 2-(4-(2-((4-cyano-2-fluorobenzyl)oxy)pyrimidin-4-yl)-2,6-difluorobenzyl)-1-((1-(fluoromethyl)cyclopropyl)methyl)-1H-benzo[d]imidazole-6-carboxylic acid]
0.58 | 0.74 | COc1cc(C#N)ccc1COc1nccc(-c2ccc(Cc3nc4ccc(C(=O)O)nc4n3CC3(CF)CC3)cc2F)n1 [Example 322, 2-(4-(2-((4-cyano-2-methoxybenzyl)oxy)pyrimidin-4-yl)-3-fluorobenzyl)-3-((1-(fluoromethyl)cyclopropyl)methyl)-3H-imidazo[4,5-b]pyridine-5-carboxylic acid]
0.27 | 0.38 | O=C(O)c1ccc2nc(Cc3ccc(-c4cccc(OCc5ccc(Cl)cc5F)n4)c(F)c3)n(CC3(CF)CC3)c2n1 [Example 321, 2-(4-(6-((4-chloro-2-fluorobenzyl)oxy)pyridin-2-yl)-3-fluorobenzyl)-3-((1-(fluoromethyl)cyclopropyl)methyl)-3H-imidazo[4,5-b]pyridine-5-carboxylic acid]
